Here are results for two compounds from patent publication US20260347364A1, “PYRAZOLO[4,3-F]QUINAZOLINE DERIVATIVES AS MODULATORS OF G12D MUTANT KRAS USEFUL FOR THE TREATMENT OF CANCER” (JAZZ PHARMACEUTICALS IRELAND LTD., priority 2023, published 2026).

What is called IC50 is the concentration that inhibits the measured activity by half. A lower IC50 goes with inhibition by little substance. For orientation: hepatocyte CLint means the capacity of the preparation to metabolise the compound, expressed as a volume cleared per time. A low value points to slow turnover.

The target of series [1] is T1, KRAS G12S (Homo sapiens, UniProt P01116, G12S).
T1 construct: 4 nM KRAS; aa1-188 containing the G12V, G12C, G12A or G12S amino acid substitution
In words: HTRF nucleotide exchange assay, KRAS G12S. It is filed as biochemical. Particulars: HTRF nucleotide exchange assay (NEA), class symbols. How it is done: (§1) HTRF Nucleotide Exchange Assay Method
(§2) The capacity of compounds to bind KRAS G12D, other KRAS mutants and wildtype RAS isoforms was quantified using a HTRF nucleotide exchange assay. Recombinant human RAS protein (2 nM; aa1-188 KRAS WT, HRAS WT, NRAS WT, or KRAS containing the G12D, G13D or Q61H amino acid substitutions, or 4 nM KRAS; aa1-188 containing the G12V, G12C, G12A or G12S amino acid substitution, an N-terminal 6× His-tag and leader sequence), and 2 nM Europium-labeled anti-6× His antibody were mixed in assay buffer (10 mM HEPES pH 7.3, 150 mM NaCl, 5 mM MgCl2, 0.05% BSA, 0.0025% NP-40 and 100 mM KF) with various concentrations of compound in a 384-well plate and a volume of 5 μL. After a 60-minute incubation at room temperature, 5 μl of 200 nM EDA-GTP-DY647P1 (diluted in assay buffer) was added to the plate. Following 30-minute incubation at room temperature, time-resolved fluorescence was measured on a PerkinElmer Envision plate reader. DMSO (0.3%) and unlabeled GDP (1 μM) or equivalent tool compound were used to generate the Max and Min assay signals, respectively. Data was analysed using a four-parameter logistic model to calculate IC50 values, with at least two independent replicates were performed for each compound. […]

Series [2] addresses T2, KRAS G12D (Homo sapiens, UniProt P01116, G12D).
T2 construct: aa1-188 KRAS WT, HRAS WT, NRAS WT, or KRAS containing the G12D
The series can be described thus: HTRF nucleotide exchange assay, KRAS G12D. It is filed as biochemical. Particulars: HTRF nucleotide exchange assay (NEA), class symbols. (TR-FRET usually uses a lanthanide donor and a delayed reading to cut background.)

Series [3] addresses T3, KRAS G12A (Homo sapiens, UniProt P01116, G12A).
T3 construct: 4 nM KRAS; aa1-188 containing the G12V, G12C, G12A or G12S amino acid substitution
In words: HTRF nucleotide exchange assay, KRAS G12A. It is filed as biochemical. The note with it: HTRF nucleotide exchange assay (NEA), class symbols. How it is done:
as §1, §2

Series [4] has as its target T4, KRAS WT (Homo sapiens, UniProt P01116).
T4 construct: aa1-188 KRAS WT
The series can be described thus: HTRF nucleotide exchange assay, KRAS WT. The note with it: HTRF nucleotide exchange assay (NEA), class symbols. It is filed as biochemical.

Series [5] deals with T5, KRAS G12V (Homo sapiens, UniProt P01116, G12V).
T5 construct: 4 nM KRAS; aa1-188 containing the G12V, G12C, G12A or G12S amino acid substitution
In words: HTRF nucleotide exchange assay, KRAS G12V. It is filed as biochemical. The note with it: HTRF nucleotide exchange assay (NEA), class symbols. How it is done:
as §1
The capacity of compounds to bind KRAS G12D, other KRAS mutants and wildtype RAS isoforms was quantified using a HTRF nucleotide exchange assay. Recombinant human RAS protein (2 nM; aa1-188 KRAS WT, HRAS WT, NRAS WT, or KRAS containing the G12D, G13D or Q61H amino acid substitutions, or 4 nM KRAS; aa1-188 containing the G12V, G12C, G12A or G12S amino acid substitution, an N-terminal 6× His-tag and leader sequence), and 2 nM Europium-labeled anti-6× His antibody were mixed in assay buffer (10 mM HEPES pH 7.3, 150 mM NaCl, 5 mM MgCl2, 0.05% BSA, 0.0025% NP-40 and 100 mM KF) with various concentrations of compound in a 384-well plate and a volume of 5 μL. After a 60-minute incubation at room temperature, 5 μl of 200 nM EDA-GTP-DY647P1 (diluted in assay buffer) was added to the plate. Following 30-minute incubation at room temperature, time-resolved fluorescence was measured on a PerkinElmer Envision plate reader. DMSO (0.3%) and unlabeled GDP (1 μM) or equivalent tool compound were used to generate the Max and Min assay signals, respectively. Data was analysed using a four-parameter logistic model to calculate IC50 values, with at least two independent replicates were performed for each compound. The results are presented as IC50s in Table 29 where “A” corresponds to an IC50 ≤10 nM, “B” to an IC50 >10 nM up to 100 nM, “C” is >100 nM up to 10 μM, “D” represents <49% inhibition at 10 μM and ND=not determined: […]

Series [6] in a line: Metabolic stability in human liver hepatocytes (substrate depletion, intrinsic clearance). It is filed as in vitro ADME. Particulars: 37° C., Williams E Media, LC-MS/MS depletion. The text has this: Determining the in vitro metabolic stability of a new chemical entity (NCE) is a very useful tool within drug discovery. A metabolic stability study will determine the in vitro intrinsic clearance (CLint) of a compound. The CLint value represents a measure of enzyme activity toward an NCE and is independent of other physiological factors such as blood flow. Determination of CLint within drug discovery helps to identify metabolic liabilities within a compound series, and ultimately assist in the identification of compounds with improved metabolic stability. The CLint value determined in vitro can be used to predict in vivo clearance (using species specific scaling factors) in pre-clinical species and ultimately in human. The liver is the primary organ involved in drug metabolism, of which there are two pathways-Phase I and Phase II. Phase I metabolism is primarily oxidative with the majority of these oxidations catalysed by cytochrome P450 enzymes (CYPs) which are located in the smooth endoplasmic reticulum (ER) in the liver. Phase II metabolism is catalysed by various conjugative enzymes which are located mainly in the ER and the cytosol. The in vitro systems used to study drug metabolism are mainly subcellular fractions such as liver microsomes or whole cells (hepatocytes) isolated from the liver. Hepatocytes, being whole cells, contain both Phase I and Phase II metabolizing enzymes and produce their own cofactors. This assay determines the metabolic stability of test compounds in human liver hepatocytes using the substrate depletion approach. The lower limit of the assay is a T1/2 >462 min and a CLint […]. Therefore the upper limit of the assay is 277 μL/min/106 cells. Any CLint value higher than this should be given an out of range value. Hepatocytes were plated in Williams E Media with added L-glutamine, compounds were added as 1 mM DMSO solution and incubated at 37° C. Compound depletion was measured by LC-MS/MS at multiple time points following quenching with cold acetonitrile. CLint was calculated from the following equation:
CLint(μl/min/106cells)=(In(2)/T1/2)*1000/cell density(10^6cells/mL)

T3 sequence (P01116 1-188 isoform P01116-2 G12A): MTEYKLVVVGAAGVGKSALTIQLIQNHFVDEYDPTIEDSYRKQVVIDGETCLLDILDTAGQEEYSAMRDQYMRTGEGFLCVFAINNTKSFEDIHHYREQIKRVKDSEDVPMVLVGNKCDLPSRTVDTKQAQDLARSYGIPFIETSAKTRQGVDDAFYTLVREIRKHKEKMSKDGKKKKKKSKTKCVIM
T4 sequence (P01116 1-188 isoform P01116-2): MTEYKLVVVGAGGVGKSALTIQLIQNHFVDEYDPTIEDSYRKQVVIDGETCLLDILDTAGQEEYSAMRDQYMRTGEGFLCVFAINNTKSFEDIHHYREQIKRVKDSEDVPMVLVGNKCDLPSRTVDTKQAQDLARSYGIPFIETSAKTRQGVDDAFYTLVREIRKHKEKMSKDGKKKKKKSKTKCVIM
T1 sequence (P01116 1-188 isoform P01116-2 G12S): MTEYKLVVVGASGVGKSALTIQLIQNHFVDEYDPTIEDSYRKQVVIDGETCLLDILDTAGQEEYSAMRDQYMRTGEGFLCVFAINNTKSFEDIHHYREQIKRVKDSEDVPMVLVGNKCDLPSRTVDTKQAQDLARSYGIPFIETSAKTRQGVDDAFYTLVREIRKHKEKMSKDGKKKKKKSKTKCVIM
T2 sequence (P01116 1-188 isoform P01116-2 G12D): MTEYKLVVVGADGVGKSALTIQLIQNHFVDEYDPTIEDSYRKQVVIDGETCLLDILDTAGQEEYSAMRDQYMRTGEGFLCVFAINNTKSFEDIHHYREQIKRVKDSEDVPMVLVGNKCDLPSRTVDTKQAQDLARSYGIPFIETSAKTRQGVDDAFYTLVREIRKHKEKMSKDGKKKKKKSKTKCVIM
T5 sequence (P01116 1-188 isoform P01116-2 G12V): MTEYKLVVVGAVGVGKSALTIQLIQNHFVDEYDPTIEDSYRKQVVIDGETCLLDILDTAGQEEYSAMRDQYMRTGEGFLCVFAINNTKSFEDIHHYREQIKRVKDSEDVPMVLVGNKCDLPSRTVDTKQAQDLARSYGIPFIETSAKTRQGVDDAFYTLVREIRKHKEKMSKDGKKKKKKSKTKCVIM

Consider `CCc1c(F)ccc2cc(O)cc(-c3c(C)c4nc(OC[C@@]56CCCN5C[C@H](F)C6)nc(N5CCOCC(C)(O)C5)c4c4cn(C)nc34)c12` (mixture of isomers) [Example 105, 4-[4-(8-ethyl-7-fluoro-3-hydroxy-1-naphthyl)-2,5-dimethyl-7-[rac-(2R)-2-fluoro-1,2,3,5,6,7-hexahydropyrrolizin-8-yl]methoxy]pyrazolo[4,3-f]quinazolin-9-yl]-6-methyl-1,4-oxazepan-6-ol], for which the IC50 in series [1] is 0.01 to 0.1 µM; in series [2], at most 0.01 µM; in series [3], at most 0.01 µM; in series [4], at most 0.01 µM; in series [5] it was at most 0.01 µM.
As for `CCc1c(F)ccc2cc(O)cc(-c3cc4nc(OC[C@@]56CCCN5C[C@H](F)C6)nc(N5CCCOCC5)c4c4cn(C)nc34)c12` [Example 1, 5-ethyl-6-fluoro-4-[2-methyl-9-(1,4-oxazepan-4-yl)-7-[[(2R,8S)-2-fluoro-1,2,3,5,6,7-hexahydropyrrolizin-8-yl]methoxy]pyrazolo[4,3-f]quinazolin-4-yl]naphthalen-2-ol], the IC50 in series [1] was 0.01 to 0.1 µM; in series [2], at most 0.01 µM; in series [3] it was at most 0.01 µM; in series [4], at most 0.01 µM; in series [5] it was 0.01 to 0.1 µM. Further, in series [6], the intrinsic metabolic clearance (hepatocyte CLint) came out at 73.3 µL/min/1e6 cells.
